# Experimental data as given in patent publication US6670383B2, “Pyranocoumarin compounds as a novel pharmacophore with anti-TB activity” (priority 2001, dated 2003).
# Structures can show the parent of a compound that is named as a salt. Where two headings read alike, the source gives them in different places.
# What was measured:
# Assay type in all cases: cell-based
# [1] = tested on: H37Rv strain of M. tuberculosis; assay: BACTEC 460 radiometric system in BACTEC 12B medium: inhibition and MIC; settings: for MIC: lowest concentration inhibiting 99% of the inoculum
# M. tuberculosis H37Ra [2] = assay: colorimetric microdilution broth assay with alamar Blue, initial screen at four log10 dilutions; settings: initial screening at 0.128, 1.28, 12.8 and 128 μg/mL
# Description: The compounds synthesized above were evaluated for activity against M. tuberculosis H37Ra using a colorimetric microdilution broth assay that incorporated the REDOX indicator alamar Blue, which indicates the growth and viability by the metabolic reduction of the dye from blue to red^18.
# In an initial screen, the compounds were assayed in duplicate at four log10 dilutions, with the highest concentration being 128 μg/mL (therefore, tested concentrations were 0.128, 1.28, 12.8, and 128 μg/mL). Each solubilized test compound was diluted in broth medium (Middlebrook 7H9+ADC enrichment+0.2% glycerol) at twice the desired concentration and 0.05 mL of each dilution then added to appropriate wells in duplicate in a 96 well (U-shaped) microtiter plates. A plate format was designed for up to seven (7) compounds per plate. Each plate also included uninoculated drug controls, viability controls, uninoculated medium controls, and positive drug controls. The inoculum for each well consisted of 0.05 mL of culture, standardized as described above to provide an inoculum in each microtiter well of approximately 10^5 CFU/mL. The plates were covered with a lid, placed in polyethylene bags and incubated for at 37° C. for 6 days. At that time, alamar Blue, diluted in Tween 80, was added to each well followed by further incubation for about 20 hours. The plates were read in an optical microplate reader programmed to subtract absorbance at 600 nm from absorbance at 570 nm. This effectively blanked out turbidity and absorbance due to oxidized dye. The amount of dye reduced, resulting in a change from blue to red, is indicative of drug yielding a differential absorption of zero or less.
# M. tuberculosis H37Ra [3] = assay: MIC and MBC determination using 2-fold dilutions; settings: for MIC / MBC: Mycobacterium tuberculosis
# [4] = Mycobacterium tuberculosis, H37RA, read-out: MIC
# [5] = Mycobacterium tuberculosis, H37RA
# [6] = 2-fold dilutions, lowest concentration that completely inhibits growth, H37Ra, read-out: MIC
# [7] = minimum bactericidal concentration, H37Ra, read-out: MBC
compound,measurement,setting,value
"7,8-Dihydrosoulattrolide [7,8-Dihydrosoulattrolide (5)]",% Inhibition,[1]; 12.5 μg/mL,99%
same,MIC,[1],6.25 µg/mL
CCCc1cc(=O)oc2c3c(c4c(c12)OC(C)(C)C=C4)O[C@H](C)[C@@H](C)C3=O (racemic) [(±)-6],% Inhibition,[1]; 12.5 μg/mL,59%
same,MIC,[1],>12.5 µg/mL
"CCCc1cc(=O)oc2c3c(c4c(c12)OC(C)(C)CC4)OC(C)C(C)C3=O (racemic) [(±)-7,8-Dihydro-12-Oxocalanolide A (7), (±)-7,8-Dihydro-12-Oxocalanolide A]",% Inhibition,[1]; 12.5 μg/mL,43%
same,MIC,[1],>12.5 µg/mL
"CCCc1cc(=O)oc2c(C(=O)CC)c(OCCN3CCOCC3)c3c(c12)OC(C)(C)CC3 [2,2-Dimethyl-5-(2-morpholin-4-yl-ethoxy)-6-propionyl-10-propyl-3,4-dihydro-2H-pyrano[2,3-f]-chromen-8-one]",MIC,M. tuberculosis H37Ra [2]; [4],> 128 µg/mL
"CCCc1cc(=O)oc2c3c(c4c(c12)OC(C)(C)C=C4)O[C@H](C)[C@@H](C)C3=O [(+)-12-Oxocalanolide A (6), (+)-12-Oxocalanolide A]",% Inhibition,[1]; 12.5 μg/mL,78%
same,MIC,[1],>12.5 µg/mL
"CCCc1cc(=O)oc2c3c(c4c(c12)OC(C)(C)C=C4)O[C@H](C)[C@H](C)C3=O [(+)-Calanolide D (8), (+)-Calanolide D]",% Inhibition,[1]; 12.5 μg/mL,57%
same,MIC,[1],>12.5 µg/mL
"CCCc1cc(=O)oc2c3c(c4c(c12)OC(C)(C)C=C4)O[C@@H](C)[C@H](C)[C@@H]3O [(−)-Calanolide B (3), (−)-Calanolide B]",% Inhibition,[1]; 12.5 μg/mL,99%
same,MIC,[1],6.25 µg/mL
"CCCc1cc(=O)oc2c(C(O)CC)c(O)c3c(c12)OC(C)(C)C=C3 (stereo not drawn) [Compound 11a, 5-Hydroxy-6-(1-hydroxypropyl)-2,2-dimethyl-10-propyl-2H-pyrano[2,3-f]chromen-8-one]",MIC,M. tuberculosis H37Ra [2]; [4],12.8 to 128 µg/mL
"CCCc1cc(=O)oc2c(C(O)CC)c(OC)c3c(c12)OC(C)(C)C=C3 (stereo not drawn) [Compound 11b, 6-(1-Hydroxypropyl)-5-methoxy-2,2-dimethyl-10-propyl-2H-pyrano[2,3-f]chromen-8-one]",MIC,M. tuberculosis H37Ra [2]; [5],12.8 to 128 µg/mL
"CCCc1cc(=O)oc2c(C(O)CC)c(OCCO)c3c(c12)OC(C)(C)C=C3 (stereo not drawn) [Compound 11e, 5-(2-Hydroxyethoxy)-6-(1-hydroxypropyl)-2,2-dimethyl-10-propyl-2H-pyrano[2,3-f]chromen-8-one]",MIC,M. tuberculosis H37Ra [2]; [4],12.8 to 128 µg/mL
"CCCc1cc(=O)oc2c(C(O)CC)c(O)c3c(c12)OC(C)(C)CC3 (stereo not drawn) [Compound 12a, 5-Hydroxy-6-(1-hydroxypropyl)-2,2-dimethyl-10-propyl-3,4-dihydro-2H-pyrano[2,3-f]chromen-8-one]",MIC,M. tuberculosis H37Ra [2]; [4],12.8 to 128 µg/mL
"CCCc1cc(=O)oc2c(C(O)CC)c(OC)c3c(c12)OC(C)(C)CC3 (stereo not drawn) [Compound 12b, 6-(1-Hydroxypropyl)-5-methoxy-2,2-dimethyl-10-propyl-3,4-dihydro-2H-pyrano[2,3-f]chromen-8-one]",MIC,M. tuberculosis H37Ra [2]; [5],12.8 to 128 µg/mL
"CCCc1cc(=O)oc2c(C(O)CC)c(OCCO)c3c(c12)OC(C)(C)CC3 (stereo not drawn) [Compound 12e, 5-(2-Hydroxyethoxy)-6-(1-hydroxypropyl)-2,2-dimethyl-10-propyl-3,4-dihydro-2H-pyrano[2,3-f]chromen-8-one]",MIC,M. tuberculosis H37Ra [2]; [4],12.8 to 128 µg/mL
"C=CCOc1cc(OCC=C)c2c(CCC)cc(=O)oc2c1C(O)CC (stereo not drawn) [Compound 21d, 5,7-Bis-allyloxy-8-(1-hydroxy-propyl)-4-propyl-chromen-2-one]",MIC,M. tuberculosis H37Ra [3]; [6],16 µg/mL
same,MBC,M. tuberculosis H37Ra [3]; [7],> 64 µg/mL
same,MIC,M. tuberculosis H37Ra [2]; [4],1.28 to 12.8 µg/mL
CCCc1cc(=O)oc2c3c(c4c(c12)OC(C)(C)C=C4)O[C@H](C)[C@@H](C)C3N (stereo partly drawn) [Compound 22],effect on M. tuberculosis,M. tuberculosis H37Ra [3],bactericidal
same,MIC,M. tuberculosis H37Ra [3]; [6],16 µg/mL
same,MBC,M. tuberculosis H37Ra [3]; [7],32 µg/mL
same,MIC,M. tuberculosis H37Ra [2]; [4],1.28 to 12.8 µg/mL
"CCCc1cc(=O)oc2c(C(N)CC)c(OC(C)C)cc(OC(C)C)c12 (stereo not drawn) [Compound 26c, 8-(1-Aminopropyl)-5,7-diisopropoxy-4-propyl-chromen-2-one, hydrochloride]",effect on M. tuberculosis,M. tuberculosis H37Ra [3],bactericidal
same,MIC,M. tuberculosis H37Ra [3]; [6],16 µg/mL
same,MBC,M. tuberculosis H37Ra [3]; [7],64 µg/mL
same,MIC,M. tuberculosis H37Ra [2]; [4],1.28 to 12.8 µg/mL
"CCCc1cc(=O)oc2c(C(=O)CC)c(O)c3c(c12)OC(C)(C)C=C3 [Compound 30, 5-hydroxy-2,2-dimethyl-6-propionyl-10-propyl-2H-pyrano[2,3-f]chromen-8-one]",MIC,M. tuberculosis H37Ra [2]; [4],> 128 µg/mL
"CCCc1cc(=O)oc2c(C(=O)CC)c(OC)c3c(c12)OC(C)(C)C=C3 [Compound 31b, 5-Methoxy-2,2-dimethyl-6-propionyl-10-propyl-2H-pyrano[2,3-f]chromen-8-one]",MIC,M. tuberculosis H37Ra [2]; [4],12.8 to 128 µg/mL
"CCCc1cc(=O)oc2c(C(=O)CC)c(OCCO)c3c(c12)OC(C)(C)C=C3 [Compound 31e, 5-(2-Hydroxy-ethoxy)-2,2-dimethyl-6-propionyl-10-propyl-2H-pyrano[2,3-f]chromen-8-one]",MIC,M. tuberculosis H37Ra [2]; [4],12.8 to 128 µg/mL
"CCCc1cc(=O)oc2c(C(=O)CC)c(OC)cc(OC)c12 [Compound 43b, 5,7-Dimethoxy-8-propionyl-4-propyl-chromen-2-one]",MIC,M. tuberculosis H37Ra [2]; [4],> 128 µg/mL
"CCCc1cc(=O)oc2c(C(=O)CC)c(O)c3c(c12)OC(C)(C)CC3 [Compound 44a, 5-Hydroxy-2,2-dimethyl-6-propionyl-10-propyl-3,4-dihydro-2H-pyrano[2,3-f]chromen-8-one]",MIC,M. tuberculosis H37Ra [2]; [4],> 128 µg/mL
"CCCc1cc(=O)oc2c(C(=O)CC)c(OCCO)c3c(c12)OC(C)(C)CC3 [Compound 44e, 5-(2-Hydroxyethoxy)-2,2-dimethyl-6-propionyl-10-propyl-3,4-dihydro-2H-pyrano[2,3-f]chromen-8-one]",MIC,M. tuberculosis H37Ra [2]; [4],12.8 to 128 µg/mL
"CCCc1cc(=O)oc2c(C(=O)CC)c(OC(C)C)c3c(c12)OC(C)(C)CC3 [Compound 44h, 5-Isopropoxy-2,2-dimethyl-6-propionyl-10-propyl-3,4-dihydro-2H-pyrano[2,3-f]chromen-8-one]",MIC,M. tuberculosis H37Ra [2]; [4],> 128 µg/mL
"CCCc1cc(=O)oc2c(C(=O)CC)c(CC(=O)OCC)c3c(c12)OC(C)(C)CC3 [Compound 44i, 5-Ethoxycarbonylmethyl-2,2-dimethyl-6-propionyl-10-propyl-3,4-dihydro-2H,8H-pyrano[2,3-f]chromen-8-one]",MIC,M. tuberculosis H37Ra [2]; [5],> 128 µg/mL
CCCc1cc(=O)oc2c(C(=O)CC)c(OCCO)c3c(c12)OC(C)(C)CC3 [Compound 44k],MIC,M. tuberculosis H37Ra [2],>128 µg/mL
"CCCc1cc(=O)oc2c(C(N)CC)c(O)c3c(c12)OC(C)(C)C=C3 (stereo not drawn) [Compound 45a, 6-(1-Aminopropyl)-5-hydroxy-2,2-dimethyl-10-propyl-2H-pyrano[2,3-f]chromen-8-one]",MIC,M. tuberculosis H37Ra [2]; [4],12.8 to 128 µg/mL
"CCCc1cc(=O)oc2c(C(CC)NCC)c(OC)c3c(c12)OC(C)(C)C=C3.Cl (stereo not drawn) [Compound 45g, 6-(1-Ethylaminopropyl)-5-methoxy-2,2-dimethyl-10-propyl-2H-pyrano[2,3-f]chromen-8-one, hydrochloride]",MIC,M. tuberculosis H37Ra [2]; [4],12.8 to 128 µg/mL
CCCc1cc(=O)oc2c(C(=O)CC)c3c(c(O)c12)C=CC(C)(C)O3 [Compound 47],MIC,M. tuberculosis H37Ra [2]; [4],12.8 to 128 µg/mL
CCCc1cc(=O)oc2c(C(=O)CC)c3c(c(OCC)c12)C=CC(C)(C)O3 [Compound 48],MIC,M. tuberculosis H37Ra [2]; [4],12.8 to 128 µg/mL
"C#CCOc1cc2c(c3oc(=O)cc(CCC)c13)C(O)C(C)C(C)O2 (stereo not drawn) [Compound trans-17d, 5-(Prop-2-ynyloxy)-10-hydroxy-8,9-dimethyl-4-propyl-9,10-dihydro-8H-pyrano[2,3-f]chromen-2-one]",MIC,M. tuberculosis H37Ra [2],>128 µg/mL
"C[C@H]1[C@H](C)Oc2c3c(c4c(-c5ccccc5)cc(=O)oc4c2[C@H]1O)OC(C)(C)C=C3 [Soulattrolide (4), Soulattrolide]",inhibition at 12.5 µg/mL,"[1]; Mycobacterium tuberculosis, 12.5 μg/mL",99%
same,MIC,"[1]; Mycobacterium tuberculosis, read-out: MIC",3.13 µg/mL
"CCCc1cc(=O)oc2c3c(cc(OC)c12)OC(C)C(C)C3O (stereo not drawn) [cis-17b, 5-Methoxy-10-hydroxy-8,9-dimethyl-4-propyl-9,10-dihydro-8H-pyrano[2,3-f]chromen-2-one]",MIC,M. tuberculosis H37Ra [2],>128 µg/mL
"C=CCOc1cc2c(c3oc(=O)cc(CCC)c13)C(O)C(C)C(C)O2 (stereo not drawn) [cis-17c, 5-(Allyloxy)-10-hydroxy-8,9-dimethyl-4-propyl-9,10-dihydro-8H-pyrano[2,3-f]chromen-2-one]",effect on M. tuberculosis,M. tuberculosis H37Ra [3],bactericidal
same,MBC,M. tuberculosis H37Ra [3]; H37RA,64 µg/mL
same,MIC,M. tuberculosis H37Ra [3]; H37RA,16 µg/mL
"C=CC(C)Oc1cc2c(c3oc(=O)cc(CCC)c13)C(O)C(C)C(C)O2 (stereo not drawn) [cis-17f, 5-(1-Methylallyloxy)-10-hydroxy-8,9-dimethyl-4-propyl-9,10-dihydro-8H-pyrano[2,3-f]chromen-2-one]",MIC,M. tuberculosis H37Ra [3]; [6],16 µg/mL
same,MBC,M. tuberculosis H37Ra [3]; [7],> 64 µg/mL
"C=CCOc1cc2c(c3oc(=O)cc(CCC)c13)C(O)C(C)C(C)O2 (stereo not drawn) [trans-17c, 5-(Allyloxy)-10-hydroxy-8,9-dimethyl-4-propyl-9,10-dihydro-8H-pyrano[2,3-f]chromen-2-one]",MIC,M. tuberculosis H37Ra [2],>128 µg/mL
"C=C(C)COc1cc2c(c3oc(=O)cc(CCC)c13)C(O)C(C)C(C)O2 (stereo not drawn) [trans-17g, 5-(2-Methylallyloxy)-10-hydroxy-8,9-dimethyl-4-propyl-9,10-dihydro-8H-pyrano[2,3-f]chromen-2-one]",MIC,M. tuberculosis H37Ra [2],>128 µg/mL
